Article PMC12902737 (Biotechnology and Applied Biochemistry, 2025)
Where two headings read alike, the source gives them in different places.

Tests used:
[1] = biological target: ALR2 enzyme (Ovis aries, UniProt A0ACI6S8R2); test: ALR2 enzyme activity / in vitro inhibition (NADPH absorbance decrease at 340 nm, DL-glyceraldehyde substrate); type: biochemical
Description: By tracking the shift in absorbance at 340 nm brought on by a decrease in NADPH, ALR2 activity was ascertained. The reaction mixture for ALR2 activity consists of 0.8 M Na‐phosphate buffer (pH = 5.5), NADPH (0.11 mM), DL‐glyceraldehyde (4.7 mM), and enzyme solution [36, 37]. […] Every measurement was taken three times.
The K I values and inhibition types were ascertained using the Lineweaver and Burk curves (Figure 5).

[2] = system: ALR2; design: method as in ref 80 (Racowitz et al.); details: ref 80 (Racowitz et al.); cited from earlier work
[3] = system: ALR2; design: method as in ref 79 (Sever et al.); details: ref 79 (Sever et al.); cited from earlier work

| Compound | Inhibition type ([1]; Lineweaver-Burk curves) | other results |
| --- | --- | --- |
| COc1ccc(-c2ccno2)cc1 [h, 5‐(4‐methoxyphenyl) isoxazole] | Competitive |  |
| Isoxazole | Noncompetitive | Ki ([1]; mean ± standard error of mean, Lineweaver-Burk curves): 89.5 ± 4.68 nM; IC50 ([1]; mean ± standard error of mean, from Activity (%) vs compound graphs): 43 ± 1.64 nM |
| O=C(O)Cc1nn(Cc2ccc(Br)cc2F)c(=O)c2ccccc12 [ponalrestat] |  | IC50 [2]: 80 nM |
| Brc1ccc(-c2ccon2)cc1 [d, 3‐(4‐bromophenyl) isoxazole] | Competitive |  |
| Clc1ccc(-c2ccon2)cc1 [b, 3‐(4‐chlorophenyl) isoxazole] | Competitive |  |
| Fc1ccc(-c2ccon2)cc1 [e, 3‐(4‐fluorophenyl) isoxazole] | Competitive |  |
| O=[N+]([O-])c1ccc(-c2ccon2)cc1 [Compound c, 3‐(4‐nitrophenyl) isoxazole] | Competitive |  |
| O=C1NC(=O)[C@@]2(CCOc3ccc(F)cc32)N1 [sorbinil] |  | IC50 [2]: 3420 ± 20 nM |
| CC(/C=C1\SC(=S)N(CC(=O)O)C1=O)=C\c1ccccc1 [EPR, Epalrestat, reference compound] |  | Inhibition type [1]: Noncompetitive |
| O=c1c(O)c(-c2ccc(O)c(O)c2)oc2cc(O)cc(O)c12 [quercetin] |  | IC50 [3]: 3230 nM |
| Clc1ccc(-c2ccno2)cc1 [g, 5‐(4‐chlorophenyl) isoxazole] | Competitive |  |
| Fc1ccc(-c2ccno2)cc1 [f, 5‐(4‐fluorophenyl) isoxazole] | Competitive |  |
